Reference: ChEMBL document CHEMBL3132771, “Machine-assisted synthesis of modulators of the histone reader BRD9 using flow methods of chemistry and frontal affinity chromatography” (Medchemcomm, 2014)
Activity calls are given as the source filed them. No cut-off for these calls is given here.

Columns and labels:
Peregrin (Homo sapiens) = molecular target: T1, Peregrin (Homo sapiens) (UniProt P55201); test: Binding affinity to BRPF1 (unknown origin) at 4 uM by thermal shift assay
T1 sequence (whole entry): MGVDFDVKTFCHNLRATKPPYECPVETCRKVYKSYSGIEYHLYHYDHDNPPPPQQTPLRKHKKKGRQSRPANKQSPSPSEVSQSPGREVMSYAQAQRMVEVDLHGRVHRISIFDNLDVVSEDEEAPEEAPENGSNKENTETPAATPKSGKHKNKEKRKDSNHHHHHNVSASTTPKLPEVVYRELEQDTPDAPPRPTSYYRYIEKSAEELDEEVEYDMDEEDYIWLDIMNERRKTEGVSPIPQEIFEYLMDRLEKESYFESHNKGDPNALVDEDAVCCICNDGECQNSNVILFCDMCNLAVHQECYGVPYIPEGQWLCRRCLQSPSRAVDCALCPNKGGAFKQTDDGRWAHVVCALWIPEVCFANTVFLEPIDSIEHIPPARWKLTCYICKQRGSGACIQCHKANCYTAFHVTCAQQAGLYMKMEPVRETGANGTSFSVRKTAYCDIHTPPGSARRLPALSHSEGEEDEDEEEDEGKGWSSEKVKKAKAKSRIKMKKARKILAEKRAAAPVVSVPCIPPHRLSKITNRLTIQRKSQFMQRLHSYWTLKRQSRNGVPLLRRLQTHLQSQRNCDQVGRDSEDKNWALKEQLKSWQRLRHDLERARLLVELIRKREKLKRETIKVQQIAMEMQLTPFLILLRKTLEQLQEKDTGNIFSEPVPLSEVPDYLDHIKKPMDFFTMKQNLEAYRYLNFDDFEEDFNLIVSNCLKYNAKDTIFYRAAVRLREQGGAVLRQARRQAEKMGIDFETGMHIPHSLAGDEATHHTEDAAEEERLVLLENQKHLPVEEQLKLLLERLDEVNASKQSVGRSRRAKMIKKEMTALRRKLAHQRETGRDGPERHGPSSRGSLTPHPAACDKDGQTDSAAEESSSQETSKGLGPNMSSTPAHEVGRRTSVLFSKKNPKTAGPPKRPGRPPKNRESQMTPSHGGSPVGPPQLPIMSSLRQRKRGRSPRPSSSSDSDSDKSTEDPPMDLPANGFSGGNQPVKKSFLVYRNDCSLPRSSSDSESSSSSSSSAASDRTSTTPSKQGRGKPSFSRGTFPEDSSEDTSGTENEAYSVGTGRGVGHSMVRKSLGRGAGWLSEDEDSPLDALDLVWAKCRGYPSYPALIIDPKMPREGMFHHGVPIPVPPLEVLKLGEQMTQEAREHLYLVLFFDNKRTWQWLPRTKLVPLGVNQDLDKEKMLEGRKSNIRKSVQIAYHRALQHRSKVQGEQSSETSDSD

[1] = molecular target: Bromodomain-containing protein 4 (Homo sapiens) (UniProt O60885); test: Binding affinity to BRD4 (unknown origin) at 4 uM by thermal shift assay
[2] = molecular target: T2, Bromodomain-containing protein 9 (Homo sapiens) (UniProt Q9H8M2); test: Binding affinity to human recombinant biotinylated BRD9 assessed as retention volume at 4 uM by FAC-MS analysis
T2 sequence (whole entry): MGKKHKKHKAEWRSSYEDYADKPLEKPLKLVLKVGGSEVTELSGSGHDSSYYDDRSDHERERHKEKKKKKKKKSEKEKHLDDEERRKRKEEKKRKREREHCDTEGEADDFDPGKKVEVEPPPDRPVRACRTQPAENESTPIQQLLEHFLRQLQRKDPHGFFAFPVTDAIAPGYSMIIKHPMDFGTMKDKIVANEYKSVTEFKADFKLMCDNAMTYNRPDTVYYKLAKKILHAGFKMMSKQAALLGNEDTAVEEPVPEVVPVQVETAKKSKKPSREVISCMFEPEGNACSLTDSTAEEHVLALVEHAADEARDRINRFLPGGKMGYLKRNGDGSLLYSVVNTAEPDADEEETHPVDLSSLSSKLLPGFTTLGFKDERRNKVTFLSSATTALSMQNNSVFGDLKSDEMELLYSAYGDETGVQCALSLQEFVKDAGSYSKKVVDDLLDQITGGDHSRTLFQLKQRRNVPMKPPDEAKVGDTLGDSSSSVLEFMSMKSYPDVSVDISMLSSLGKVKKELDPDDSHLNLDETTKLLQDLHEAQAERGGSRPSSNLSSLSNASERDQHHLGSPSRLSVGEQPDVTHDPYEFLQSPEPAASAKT

[3] = molecular target: T3, Bromodomain and PHD finger-containing protein 3 (Homo sapiens) (UniProt Q9ULD4); test: Binding affinity to BRPF3 (unknown origin) at 4 uM by thermal shift assay
T3 sequence (whole entry): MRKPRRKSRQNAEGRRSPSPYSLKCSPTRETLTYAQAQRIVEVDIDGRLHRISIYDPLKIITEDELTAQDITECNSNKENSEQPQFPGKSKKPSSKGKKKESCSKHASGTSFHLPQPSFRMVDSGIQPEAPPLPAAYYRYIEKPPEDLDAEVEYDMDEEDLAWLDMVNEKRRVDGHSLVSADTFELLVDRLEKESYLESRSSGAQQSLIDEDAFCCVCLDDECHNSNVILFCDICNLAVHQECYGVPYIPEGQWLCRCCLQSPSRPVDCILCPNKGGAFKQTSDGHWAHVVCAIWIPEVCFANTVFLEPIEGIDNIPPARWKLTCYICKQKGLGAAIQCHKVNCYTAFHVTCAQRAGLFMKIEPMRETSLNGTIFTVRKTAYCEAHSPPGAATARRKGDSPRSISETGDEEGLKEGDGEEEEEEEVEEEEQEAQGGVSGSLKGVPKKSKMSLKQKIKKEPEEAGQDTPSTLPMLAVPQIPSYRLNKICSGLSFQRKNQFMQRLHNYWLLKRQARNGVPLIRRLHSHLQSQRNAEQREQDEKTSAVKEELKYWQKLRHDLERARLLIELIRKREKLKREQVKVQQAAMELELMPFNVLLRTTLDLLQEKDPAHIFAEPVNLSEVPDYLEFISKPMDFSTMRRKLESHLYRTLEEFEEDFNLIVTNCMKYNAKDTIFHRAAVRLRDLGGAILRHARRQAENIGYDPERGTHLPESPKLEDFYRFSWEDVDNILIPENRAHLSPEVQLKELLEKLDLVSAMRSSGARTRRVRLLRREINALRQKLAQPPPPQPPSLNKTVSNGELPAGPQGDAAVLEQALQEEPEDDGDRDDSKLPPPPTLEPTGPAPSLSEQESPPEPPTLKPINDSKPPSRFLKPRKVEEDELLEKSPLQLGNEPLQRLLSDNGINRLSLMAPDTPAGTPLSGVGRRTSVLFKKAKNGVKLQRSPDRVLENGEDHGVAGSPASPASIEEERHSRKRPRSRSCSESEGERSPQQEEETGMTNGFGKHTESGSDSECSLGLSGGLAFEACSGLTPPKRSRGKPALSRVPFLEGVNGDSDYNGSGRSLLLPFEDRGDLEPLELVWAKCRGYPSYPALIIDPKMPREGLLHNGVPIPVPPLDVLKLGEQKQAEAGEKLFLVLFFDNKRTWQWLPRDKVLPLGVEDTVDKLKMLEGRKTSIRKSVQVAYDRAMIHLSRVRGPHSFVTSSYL

[4] = molecular target: CREB-binding protein (Homo sapiens) (UniProt Q92793); test: Binding affinity to CREBBP (unknown origin) at 4 uM by thermal shift assay
[5] = molecular target: T2, Bromodomain-containing protein 9 (Homo sapiens); test: Binding affinity to human recombinant biotinylated BRD9 by UV spectrophotometric analysis
[6] = molecular target: Chromatin remodeling regulator CECR2 (Homo sapiens) (UniProt Q9BXF3); test: Binding affinity to CECR2 (unknown origin) at 4 uM by thermal shift assay
[7] = molecular target: T4, Transcription intermediary factor 1-alpha (Homo sapiens) (UniProt O15164); test: Binding affinity to TIF1 (unknown origin) at 4 uM by thermal shift assay
T4 sequence (whole entry): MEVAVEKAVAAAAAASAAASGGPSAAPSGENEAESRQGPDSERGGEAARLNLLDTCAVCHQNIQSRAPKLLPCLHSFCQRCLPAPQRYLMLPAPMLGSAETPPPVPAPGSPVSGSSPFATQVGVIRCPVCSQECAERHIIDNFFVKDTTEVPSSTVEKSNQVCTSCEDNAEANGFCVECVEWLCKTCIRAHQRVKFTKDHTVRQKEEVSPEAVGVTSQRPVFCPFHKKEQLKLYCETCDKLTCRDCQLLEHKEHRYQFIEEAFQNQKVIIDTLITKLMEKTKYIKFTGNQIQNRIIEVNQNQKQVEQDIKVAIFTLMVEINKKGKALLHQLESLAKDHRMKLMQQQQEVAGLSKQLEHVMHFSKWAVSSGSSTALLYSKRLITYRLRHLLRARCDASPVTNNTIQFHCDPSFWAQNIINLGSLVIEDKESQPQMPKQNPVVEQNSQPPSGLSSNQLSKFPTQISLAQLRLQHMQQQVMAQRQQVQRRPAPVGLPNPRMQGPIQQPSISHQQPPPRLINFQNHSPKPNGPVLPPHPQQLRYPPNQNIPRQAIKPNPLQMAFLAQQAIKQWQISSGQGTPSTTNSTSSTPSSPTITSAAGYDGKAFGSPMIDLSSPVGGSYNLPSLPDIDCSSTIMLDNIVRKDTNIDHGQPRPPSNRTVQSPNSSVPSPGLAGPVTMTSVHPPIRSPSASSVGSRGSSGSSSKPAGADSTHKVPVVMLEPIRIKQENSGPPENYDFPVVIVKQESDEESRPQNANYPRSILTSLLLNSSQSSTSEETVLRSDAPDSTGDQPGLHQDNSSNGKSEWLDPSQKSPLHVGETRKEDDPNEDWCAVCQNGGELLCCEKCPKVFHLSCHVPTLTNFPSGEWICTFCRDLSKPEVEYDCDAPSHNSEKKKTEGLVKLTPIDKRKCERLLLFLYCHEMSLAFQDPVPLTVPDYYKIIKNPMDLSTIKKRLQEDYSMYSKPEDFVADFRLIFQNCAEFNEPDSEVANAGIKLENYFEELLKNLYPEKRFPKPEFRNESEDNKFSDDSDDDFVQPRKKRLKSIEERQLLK

Homo sapiens [8] = species on record: Homo sapiens; test: Binding affinity to EP300A (unknown origin) at 4 uM by thermal shift assay
[9] = molecular target: T2, Bromodomain-containing protein 9 (Homo sapiens); test: Binding affinity to human recombinant biotinylated BRD9 assessed as change in melting temperature at 4 uM by thermal shift assay
Homo sapiens [10] = species on record: Homo sapiens; test: Binding affinity to BRD1A (unknown origin) at 4 uM by thermal shift assay
[11] = molecular target: T2, Bromodomain-containing protein 9 (Homo sapiens); test: Binding affinity to human recombinant biotinylated BRD9 assessed as retention volume at 50 uM by FAC-MS analysis
[12] = molecular target: T2, Bromodomain-containing protein 9 (Homo sapiens); test: Binding affinity to human recombinant biotinylated BRD9 at 4 uM after 120 mins by FAC-MS analysis
[13] = molecular target: T5, Bromodomain-containing protein 9 (Homo sapiens, UniProt Q9H8M2); test: Binding affinity to human recombinant biotinylated BRD9 compound treated in ammonium acetate buffer by FAC-MS analysis
T5 sequence (Q9H8M2 whole entry): T2 sequence (whole entry)

[14] = molecular target: T5, Bromodomain-containing protein 9; test: Binding affinity to human recombinant biotinylated BRD9 compound treated in PBS buffer by FAC-MS analysis

Sequence of Chromatin remodeling regulator CECR2 (Homo sapiens) (Q9BXF3 whole entry, looked up): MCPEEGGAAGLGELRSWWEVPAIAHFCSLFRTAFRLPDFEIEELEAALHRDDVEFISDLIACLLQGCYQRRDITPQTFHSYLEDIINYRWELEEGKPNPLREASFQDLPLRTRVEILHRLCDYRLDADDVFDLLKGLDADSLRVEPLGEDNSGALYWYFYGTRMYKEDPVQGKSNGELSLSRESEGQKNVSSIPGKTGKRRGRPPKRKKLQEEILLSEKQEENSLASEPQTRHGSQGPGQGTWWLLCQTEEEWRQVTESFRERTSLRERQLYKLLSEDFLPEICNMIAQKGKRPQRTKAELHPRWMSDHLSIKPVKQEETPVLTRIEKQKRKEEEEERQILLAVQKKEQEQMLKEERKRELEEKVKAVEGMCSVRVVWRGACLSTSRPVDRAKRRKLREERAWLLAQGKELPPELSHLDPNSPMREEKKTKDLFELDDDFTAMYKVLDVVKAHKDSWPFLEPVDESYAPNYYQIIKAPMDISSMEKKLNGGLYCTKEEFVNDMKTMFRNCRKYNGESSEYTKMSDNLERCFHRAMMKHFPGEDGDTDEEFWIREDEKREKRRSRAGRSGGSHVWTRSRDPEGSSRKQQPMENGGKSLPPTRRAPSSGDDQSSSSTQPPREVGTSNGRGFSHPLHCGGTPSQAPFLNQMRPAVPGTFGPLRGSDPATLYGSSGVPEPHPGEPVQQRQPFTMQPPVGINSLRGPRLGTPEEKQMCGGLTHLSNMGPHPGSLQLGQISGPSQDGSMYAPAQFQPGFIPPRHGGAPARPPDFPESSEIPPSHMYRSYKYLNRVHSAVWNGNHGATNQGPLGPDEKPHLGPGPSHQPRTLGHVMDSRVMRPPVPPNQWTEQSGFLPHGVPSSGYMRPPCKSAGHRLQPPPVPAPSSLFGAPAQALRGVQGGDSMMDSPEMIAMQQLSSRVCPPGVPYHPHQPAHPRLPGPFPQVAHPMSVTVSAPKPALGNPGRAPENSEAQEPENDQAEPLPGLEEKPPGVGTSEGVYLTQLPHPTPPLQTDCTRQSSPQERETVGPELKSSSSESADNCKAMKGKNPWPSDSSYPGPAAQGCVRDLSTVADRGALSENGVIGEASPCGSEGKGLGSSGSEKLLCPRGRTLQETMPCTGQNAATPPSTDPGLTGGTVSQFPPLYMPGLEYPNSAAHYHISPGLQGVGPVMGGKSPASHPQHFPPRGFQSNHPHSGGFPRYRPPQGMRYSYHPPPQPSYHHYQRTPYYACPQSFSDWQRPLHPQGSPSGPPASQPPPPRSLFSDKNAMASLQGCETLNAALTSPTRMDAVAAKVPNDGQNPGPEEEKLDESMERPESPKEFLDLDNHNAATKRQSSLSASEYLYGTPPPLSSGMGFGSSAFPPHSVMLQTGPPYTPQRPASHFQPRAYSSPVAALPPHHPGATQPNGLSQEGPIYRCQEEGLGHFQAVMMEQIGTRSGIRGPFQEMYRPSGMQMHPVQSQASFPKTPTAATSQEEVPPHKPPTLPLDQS
Sequence of CREB-binding protein (Homo sapiens) (Q92793 2-2442 limits assumed): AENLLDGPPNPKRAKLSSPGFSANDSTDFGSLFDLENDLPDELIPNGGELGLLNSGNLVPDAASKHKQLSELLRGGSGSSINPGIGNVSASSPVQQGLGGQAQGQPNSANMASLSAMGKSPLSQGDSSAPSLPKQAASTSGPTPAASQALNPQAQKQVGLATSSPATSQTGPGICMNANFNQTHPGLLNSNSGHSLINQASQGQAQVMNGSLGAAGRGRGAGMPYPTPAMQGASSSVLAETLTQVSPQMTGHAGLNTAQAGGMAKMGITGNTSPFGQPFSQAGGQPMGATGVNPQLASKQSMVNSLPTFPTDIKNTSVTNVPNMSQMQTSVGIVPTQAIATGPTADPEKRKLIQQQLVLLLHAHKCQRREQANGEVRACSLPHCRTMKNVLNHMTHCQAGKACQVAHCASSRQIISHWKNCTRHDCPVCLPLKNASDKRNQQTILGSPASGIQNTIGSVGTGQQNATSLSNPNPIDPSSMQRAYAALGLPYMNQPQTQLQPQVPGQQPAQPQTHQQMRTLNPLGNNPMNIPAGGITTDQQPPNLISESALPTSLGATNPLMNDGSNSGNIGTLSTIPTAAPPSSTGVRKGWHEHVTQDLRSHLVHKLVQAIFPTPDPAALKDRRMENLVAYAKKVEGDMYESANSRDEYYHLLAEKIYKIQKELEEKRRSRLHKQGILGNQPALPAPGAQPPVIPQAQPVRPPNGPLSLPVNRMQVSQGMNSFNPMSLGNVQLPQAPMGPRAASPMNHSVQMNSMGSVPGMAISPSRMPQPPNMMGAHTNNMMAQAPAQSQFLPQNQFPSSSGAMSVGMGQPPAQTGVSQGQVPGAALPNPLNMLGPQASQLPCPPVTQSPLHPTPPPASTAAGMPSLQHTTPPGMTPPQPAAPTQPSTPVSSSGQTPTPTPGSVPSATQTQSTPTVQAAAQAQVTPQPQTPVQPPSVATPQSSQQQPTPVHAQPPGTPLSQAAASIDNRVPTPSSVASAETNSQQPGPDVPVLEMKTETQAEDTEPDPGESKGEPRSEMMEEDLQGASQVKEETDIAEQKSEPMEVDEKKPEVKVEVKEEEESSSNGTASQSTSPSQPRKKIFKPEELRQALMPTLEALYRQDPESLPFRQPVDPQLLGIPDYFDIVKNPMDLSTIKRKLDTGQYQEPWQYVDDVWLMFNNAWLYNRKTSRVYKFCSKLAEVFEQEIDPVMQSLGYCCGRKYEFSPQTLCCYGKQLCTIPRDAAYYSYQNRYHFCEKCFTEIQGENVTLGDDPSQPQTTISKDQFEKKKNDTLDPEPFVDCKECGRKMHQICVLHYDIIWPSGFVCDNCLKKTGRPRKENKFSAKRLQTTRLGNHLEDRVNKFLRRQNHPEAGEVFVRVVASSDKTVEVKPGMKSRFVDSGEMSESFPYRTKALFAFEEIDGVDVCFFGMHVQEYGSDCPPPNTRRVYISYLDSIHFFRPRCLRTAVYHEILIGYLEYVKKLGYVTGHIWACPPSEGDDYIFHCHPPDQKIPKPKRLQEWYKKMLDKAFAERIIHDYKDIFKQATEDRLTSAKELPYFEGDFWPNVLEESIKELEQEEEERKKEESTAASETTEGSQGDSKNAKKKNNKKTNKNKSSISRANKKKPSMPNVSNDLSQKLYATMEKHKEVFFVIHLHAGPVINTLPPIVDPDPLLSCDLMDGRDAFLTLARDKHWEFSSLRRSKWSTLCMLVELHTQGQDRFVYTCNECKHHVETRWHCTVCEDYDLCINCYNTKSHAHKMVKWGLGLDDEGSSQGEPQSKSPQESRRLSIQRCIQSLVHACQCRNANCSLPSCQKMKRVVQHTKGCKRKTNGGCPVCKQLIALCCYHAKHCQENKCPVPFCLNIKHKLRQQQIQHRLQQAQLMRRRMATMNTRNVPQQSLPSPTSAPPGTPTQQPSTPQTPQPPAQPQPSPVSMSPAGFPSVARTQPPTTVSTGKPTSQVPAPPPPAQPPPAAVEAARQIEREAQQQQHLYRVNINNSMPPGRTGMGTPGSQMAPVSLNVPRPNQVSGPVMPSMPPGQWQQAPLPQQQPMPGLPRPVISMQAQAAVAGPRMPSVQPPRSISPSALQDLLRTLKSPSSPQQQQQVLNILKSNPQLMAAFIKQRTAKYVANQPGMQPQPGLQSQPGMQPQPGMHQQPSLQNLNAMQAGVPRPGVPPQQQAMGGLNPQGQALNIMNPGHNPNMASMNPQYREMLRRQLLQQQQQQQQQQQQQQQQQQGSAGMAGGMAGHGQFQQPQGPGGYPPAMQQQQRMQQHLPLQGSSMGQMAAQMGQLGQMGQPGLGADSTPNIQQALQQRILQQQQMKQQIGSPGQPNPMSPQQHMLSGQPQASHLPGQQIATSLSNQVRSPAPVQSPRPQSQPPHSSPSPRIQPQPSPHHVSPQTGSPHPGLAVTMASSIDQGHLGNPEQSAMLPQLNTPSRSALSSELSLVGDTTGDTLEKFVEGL

SMILES | Activity (Peregrin (Homo sapiens)) | Activity [1] | Activity [2] | Activity [3] | Activity [4] | Activity [5] | Activity [6] | Activity [7] | Activity (Homo sapiens [8]) | ΔTm [9] | Activity (Homo sapiens [10]) | further results
CCOC(=O)N(c1cc(-c2cc(N)c3nnc(C)n3n2)ccc1C)S(=O)(=O)c1ccc(Cl)cc1 | inactive | inactive | 947 µL | inactive | inactive | Active | inactive | inactive | inactive | 2.7 °C | inactive | 
CCOC(=O)Nc1cc(-c2ccc(C)c(NS(C)(=O)=O)c2)nn2c(C)nnc12 |  |  | > 3600 µL |  |  |  |  |  |  | 8.8 °C |  | Activity [11]: 324 µL; Activity [12]: inactive
Cc1nnc2c(NC(=O)OC(C)(C)C)cc(-c3ccccc3)nn12 |  |  |  |  |  |  |  |  |  |  |  | Kd [13]: 8.35 µM; Kd [14]: 8.35 µM
Cc1ccc(-c2cc(N)c3nnc(C)n3n2)cc1NS(=O)(=O)c1cccc(Cl)c1 |  |  |  |  |  | Active |  |  |  |  |  | 
COc1ccc(-c2ccc3nnc(C(F)(F)F)n3n2)cc1 | inactive | inactive | 270 µL | inactive | inactive | Active | inactive | inactive | inactive | 0.6 °C | inactive | 
CCOC(=O)N(c1cc(-c2cc(N)c3nnc(C)n3n2)ccc1C)S(=O)(=O)c1ccccc1Cl |  |  |  |  |  | Active |  |  |  |  |  | 
FC(F)(F)c1nnc2ccc(-c3ccccc3)nn12 | inactive | inactive | 212 µL | inactive | inactive | Active | inactive | inactive | inactive | -0.6 °C | inactive | 
Cc1nnc2c(N)cc(Cl)nn12 |  |  |  |  |  | Active |  |  |  |  |  | 
Cc1ccc(-c2cc(N)c3nnc(C)n3n2)cc1NS(=O)(=O)c1ccc(Cl)c(Cl)c1 |  | Active | 1170 µL |  |  | Active |  |  | Active | 4.3 °C |  | 
Cc1ccc(-c2cc(N)c3nnc(C)n3n2)cc1NS(=O)(=O)c1ccccc1Cl |  | Active | 784 µL |  |  | Active |  |  |  | 2.4 °C |  | 
